Where two headings read alike, the source gives them in different places.
Legend:
[1] = log P (octanol/water); format: physicochemical
[2] = test system: cytochrom P450 dependent liver monooxygenases
[3] = test system: human solid tumors implanted into nude mice; details: cited from earlier work
[4] = solubility in physiological saline (pH 7.4); format: physicochemical
[5] = test system: tumor cells; assay: inhibition of growth of tumor cells; format: cell-based; details: relative to parent compounds
[6] = nude mice, comparable dosage, cf. PCT/EP00/03210

| SMILES | log P (octanol/water) [1] | solubility in physiological saline [4] | inhibiting growth of tumor cells, compared with the parent compounds [5] | further results |
| --- | --- | --- | --- | --- |
| Cc1ccc2c(c1)/C(=C1/Nc3ccccc3C1=O)C(=O)N2 [5-methylindirubin] | 1.1 | 0.1 mg/l |  | metabolism (oxidative, liver microsomes) ([2]; liver microsome preparations from cows, pigs, rats and human liver samples): rapidly metabolized; effectiveness on human solid tumors implanted into nude mice [3, 6]: highly effective; toxicity (body weight loss) [3, 6]: without any perceptible toxicity |
| Cc1cc2c(cc1O)NC(=O)C2=C1Nc2c(O)cccc2C1=O [6,7′-dihydroxy-5-methylindirubin] |  |  | at least as effective |  |
| Cc1cc2c(cc1O)NC(=O)C2=C1Nc2ccccc2C1=O [6-hydroxy-5-methylindirubin] | 1.6 | up to 240 mg/l | at least as effective | increase of solubility versus parent compound 5-methylindirubin (factor) [4]: more than 2000 |
| O=C1Nc2ccccc2/C1=C1/Nc2ccccc2C1=O [indirubin] |  |  |  | metabolism (oxidative, liver microsomes) [2]: not metabolized to a detectable extent; toxicity (body weight loss) ([3]; mouse, in vivo): remarkably toxic |

Source: patent US20050080020A1, “Hydroxylated indirubin derivatives” (priority 2002, published 2005)
